Patent US20110206607A1, “IMIDAZOL (1,2-A)PYRIDINES AND RELATED COMPOUNDS WITH ACTIVITY AT CANNABINOID CB2 RECEPTORS” (priority 2007, published 2011)

Biological target: T1, human CB2 (Homo sapiens, UniProt P34972)
T1 construct: expressed in transfected cells; host or cells: HEK-293T (transient transfection, membrane preparation)
Experiment: CB2 receptor binding assay, block of [3H]-CP 55,940 binding
Conditions: membranes of HEK-293T cells transfected with human CB2 cDNA; 1.5 nM [3H]-CP 55,940
Method: Membrane preparation—HEK-293T cells were cultured according to ATCC (Manassas, Va.) guidelines and transfected with human CB2 cDNA (SEQ ID NO:1) (Genbank X74328), operably linked to the SV40 promoter, using Polyfect (Qiagen, Valencia, Calif.) or Fugene (Roche, Nutley, N.J.) according to manufacturer's instructions. 48 h after transfection cells were harvested in ice cold membrane buffer (20 mM HEPES, 6 mM MgCl2, 1 mM EDTA, pH 7.2) using a cell scraper. Cells were transferred to a nitrogen cavitation chamber and a pressure of […] was applied for 30 min. The pressure was released and the cell debris was collected and centrifuged at 1000 g at 4° C. for 10 min. The supernatant was collected and the spin was repeated until the supernatant was free of precipitate. Membranes were then pelleted by centrifugation at 12.000 g at 4° C. for 20 min. Membranes were resuspended in an appropriate amount of membrane buffer. The membrane concentration was determined using a BioRad (Hercules, Calif.) protein assay dye reagent according to manufacturer's instructions. Membranes were diluted to 1 mg/ml and aliquots snap-frozen in liquid nitrogen and store at −80° C.
Binding assay—0.5-10 ng of membranes were incubated in binding buffer (50 mM Tris, 0.5 mM EDTA, 0.1% BSA, pH 7.4) in the presence of 1.5 nM radioligand ([^3H]-CP 55,940 Perkin Elmer) and varying concentrations of ligands (total volume 100 μL in a 96 well plate). Membranes were filtered onto a 96 well GF/B filterplate (Packard Bioscience, Shelton, Conn.) and washed with […] wash buffer (25 mM HEPES, 1 mM CaCl2, 5 mM MgCl2, 0.25M NaCl) using a Filtermate 196 Harvester (Packard Instruments, Downers Grove, Ill.). The filter plates were dried under a heat lamp before addition of 50 μL of scintillation fluid to each well (Microscint 20, Packard, Shelton, Conn.). Plates were counted on a Topcount NXT (Packard, Shelton, Conn.).
Data Analysis—Graphs were plotted and KD values were determined by nonlinear regression analysis using Prism software (GraphPad version 4.0, San Diego, Calif., USA).

T1 sequence (P34972 whole entry): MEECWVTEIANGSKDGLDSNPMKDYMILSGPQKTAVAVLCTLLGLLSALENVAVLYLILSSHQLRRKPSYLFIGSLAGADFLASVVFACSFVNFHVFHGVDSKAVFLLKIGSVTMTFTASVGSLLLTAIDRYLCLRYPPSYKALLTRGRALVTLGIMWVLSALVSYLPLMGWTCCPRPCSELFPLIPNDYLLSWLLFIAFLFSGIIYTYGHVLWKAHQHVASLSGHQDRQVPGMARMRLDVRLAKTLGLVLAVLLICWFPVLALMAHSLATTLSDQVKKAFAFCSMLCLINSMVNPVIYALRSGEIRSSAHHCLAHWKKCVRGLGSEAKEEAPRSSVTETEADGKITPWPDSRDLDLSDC

## COc1cc(-c2nc3ccc(Cl)cn3c2Nc2ccc3c(c2)OCCO3)ccc1O [CR-77]
  pKi: 6.7

## Fc1ncccc1-c1nc2cnccn2c1Nc1ccc2c(c1)OCCO2 [CR-78]
  pKi: 5.4

## COc1cc(O)ccc1-c1nc2ccccn2c1Nc1ccc2c(c1)OCCO2 [CR-79]
  pKi: 6.7

## Cc1cn2c(Nc3ccc4c(c3)OCCO4)c(-c3c(F)cccc3Cl)nc2cn1 [CR-80]
  pKi: 6.7

## COc1cc(-c2nc3ccc(C)cn3c2Nc2ccc3c(c2)OCCO3)ccc1O [CR-81]
  pKi: 6.7

## Cc1cccc(C)c1-c1nc2cnccn2c1Nc1ccc2c(c1)OCCO2 [CR-82]
  pKi: 6.7

## Fc1cc(-c2nc3cnccn3c2Nc2ccc3c(c2)OCCO3)ccn1 [CR-83]
  pKi: 5.5

## Cc1cccc2nc(-c3cccc(F)n3)c(Nc3ccc4c(c3)OCCO4)n12 [CR-84]
  pKi: 6.7

## COc1cc(O)ccc1-c1nc2ccc(C)cn2c1Nc1ccc2c(c1)OCCO2 [CR-85]
  pKi: 6.7

## Cc1cccc2nc(-c3c(O)cccc3F)c(Nc3ccc4c(c3)OCCO4)n12 [CR-86]
  pKi: 6.6

## Cc1ccc2nc(-c3ncccc3F)c(Nc3ccc4c(c3)OCCO4)n2c1 [CR-87]
  pKi: 6.6

## COc1cc(-c2nc3cccc(C)n3c2Nc2ccc3c(c2)OCCO3)ccc1OCCF [CR-88]
  pKi: 6.6

## Fc1ccc(-c2nc3cnccn3c2Nc2ccc3c(c2)OCCO3)cn1 [CR-89]
  pKi: 5.5

## COc1cccc(OC)c1-c1nc2ccncn2c1Nc1ccc2c(c1)OCCO2 [CR-90]
  pKi: 5.6

## COc1cc(-c2nc3cnccn3c2Nc2ccc3c(c2)OCCO3)cc(F)c1O [CR-91]
  pKi: 6.6

## Fc1cccc(F)c1-c1nc2cnccn2c1Nc1ccc2c(c1)OCCO2 [CR-92]
  pKi: 6.6

## COc1cc(-c2nc3ccccn3c2Nc2ccc3c(c2)OCCO3)cc(F)c1O [CR-93]
  pKi: 5.7

## Clc1cccc(Cl)c1-c1nc2cnccn2c1Nc1ccc2c(c1)OCCO2 [CR-94]
  pKi: 6.6

## COc1cc(-c2nc3cccc(C)n3c2Nc2ccc3c(c2)OCCO3)cc(F)c1O [CR-95]
  pKi: 6.6

## COc1cc(-c2nc3ccc(C)cn3c2Nc2ccc3c(c2)OCCO3)cc(F)c1O [CR-96]
  pKi: 6.5

## COc1cc(-c2nc3cccc(C)n3c2Nc2ccc3c(c2)OCCO3)ccc1O [CR-97]
  pKi: 6.5

## COc1cc(-c2nc3ccncn3c2Nc2ccc3c(c2)OCCO3)ccc1O [CR-98]
  pKi: 6.5

## Cc1ccn2c(Nc3ccc4c(c3)OCCO4)c(-c3cccc(F)n3)nc2c1 [CR-99]
  pKi: 6.5

## COc1cccc(OC)c1-c1nc2ccc(C)cn2c1Nc1ccc2c(c1)OCCO2 [CR-100]
  pKi: 6.5

## Cc1cccn2c(Nc3ccc4c(c3)OCCO4)c(-c3ccccn3)nc12 [CR-101]
  pKi: 6.5

## OCc1ccn2c(Nc3ccc4c(c3)OCCO4)c(-c3c(F)cccc3Cl)nc2c1 [CR-102]
  pKi: 6.4

## Fc1cccc(Cl)c1-c1nc2cnccn2c1Nc1ccc2c(c1)OCCO2 [CR-103]
  pKi: 6.4

## COc1ccnc2nc(-c3c(F)cccc3Cl)c(Nc3ccc4c(c3)OCCO4)n12 [CR-104]
  pKi: 6.4

## COc1cc(O)ccc1-c1nc2c(C)cccn2c1Nc1ccc2c(c1)OCCO2 [CR-105]
  pKi: 6.4

## Cc1ccn2c(Nc3ccc4c(c3)OCCO4)c(-c3ncccc3F)nc2c1 [CR-106]
  pKi: 5.7

## COc1cc(O)ccc1-c1nc2cc(C)ccn2c1Nc1ccc2c(c1)OCCO2 [CR-107]
  pKi: 6.4

## COc1ccnc2nc(-c3c(C)cc(O)cc3C)c(Nc3ccc4c(c3)OCCO4)n12 [CR-108]
  pKi: 6.3

## COc1cccc2nc(-c3c(F)cccc3Cl)c(NC(=O)Nc3ccc4c(c3)OCCO4)n12 [CR-109]
  pKi: 6.3

## Fc1ccc(-c2nc3ccccn3c2Nc2ccc3c(c2)OCCO3)cn1 [CR-110]
  pKi: 5.7

## COc1cc(O)ccc1-c1nc2ncccn2c1Nc1ccc2c(c1)OCCO2 [CR-111]
  pKi: 6.3

## COc1cccc(F)c1-c1nc2ncccn2c1Nc1ccc2c(c1)OCCO2 [CR-112]
  pKi: 6.3

## Fc1cccnc1-c1nc2ccccn2c1Nc1ccc2c(c1)OCCO2 [CR-113]
  pKi: 6.3

## COc1cccc(OC)c1-c1nc2cccc(C)n2c1Nc1ccc2c(c1)OCCO2 [CR-114]
  pKi: 6.3

## c1ccc(-c2nc3ncccn3c2Nc2ccc3c(c2)OCCO3)nc1 [CR-115]
  pKi: 6.2

## COc1cccc(OC)c1-c1nc2ccccn2c1Nc1ccc2c(c1)OCCO2 [CR-116]
  pKi: 6.2

## COc1cccc2nc(-c3c(F)cccc3Cl)c(NC(=O)c3ccc4c(c3)OCCO4)n12 [CR-117]
  pKi: 5.7

## COc1cccc(OC)c1-c1nc2cnccn2c1Nc1ccc2c(c1)OCCO2 [CR-118]
  pKi: 5.8

## Cc1ccn2c(Nc3ccc4c(c3)OCCO4)c(-c3ccccn3)nc2c1 [CR-119]
  pKi: 5.9

## COc1cc(O)ccc1-c1nc2ccncn2c1Nc1ccc2c(c1)OCCO2 [CR-120]
  pKi: 5.9

## COc1cccc(OC)c1-c1nc2ncccn2c1Nc1ccc2c(c1)OCCO2 [CR-121]
  pKi: 6.0

## Fc1cccc(Cl)c1-c1nc2cccc(C(F)(F)F)n2c1Nc1ccc2c(c1)OCCO2 [CR-122]
  pKi: 6.0

## COc1cccc(OC)c1-c1nc2c(C)cccn2c1Nc1ccc2c(c1)OCCO2 [CR-123]
  pKi: 6.0

## Cc1cccc2nc(-c3c(F)cccc3Cl)c(N(C)c3ccc4c(c3)OCCO4)n12 [CR-124]
  pKi: 6.0

## COc1cccc(F)c1-c1nc2cnccn2c1Nc1ccc2c(c1)OCCO2 [CR-125]
  pKi: 5.9

## COc1cccc(OC)c1-c1nc2cc(C)ccn2c1Nc1ccc2c(c1)OCCO2 [CR-126]
  pKi: 5.9

## Cc1cccc2nc(-c3c(F)cccc3Cl)c(Nc3ccc4c(c3)OCO4)n12 [CR-127]
  pKi: 7.3

## Fc1cccc(Cl)c1-c1nc2ccccn2c1Nc1ccc2c(c1)OCO2 [CR-128]
  pKi: 6.7

## Cc1cccn2c(Nc3ccc4c(c3)OCO4)c(-c3c(F)cccc3Cl)nc12 [CR-129]
  pKi: 6.4

## COc1cc(-c2nc3cc(C)ccn3c2Nc2ccc3c(c2)OCO3)cc(F)c1O [CR-130]
  pKi: 6.1

## COc1cccc2nc(-c3c(C)cc(OCC[18F])cc3C)c(Nc3ccc4c(c3)OCCO4)n12 [CR-132]
  Ki: 5.01 nM

## COc1cccc2nc(-c3c(F)ccc(OCC[18F])c3F)c(Nc3ccc4c(c3)OCCO4)n12 [CR-133]
  Ki: 1.58 nM

## COc1cccc2nc(-c3c(F)ccc(OC[18F])c3Cl)c(Nc3ccc4c(c3)OCCO4)n12 [CR-134]
  Ki: 1 nM

## Fc1cncc(F)c1-c1nc2cccc(OCC[18F])n2c1Nc1ccc2c(c1)OCCO2 [CR-135]
  Ki: 39.8 nM

## COc1cccc2nc(-c3c(C)cc(OC[18F])cc3C)c(Nc3ccc4c(c3)OCCO4)n12 [CR-136]
  pKi: 9.5

## COc1cnc2nc(-c3c(F)cncc3F)c(Nc3ccc4c(c3)OCCO4)n2c1 [CR-137]
  pKi: 6.5

## COc1cccc2nc(-c3c(F)cc(O)cc3Cl)c(Nc3ccc4c(c3)OCCO4)n12 [CR-138]
  pKi: 8.3

## COc1cccc2nc(-c3c(C)cncc3C)c(Nc3ccc4c(c3)OCCO4)n12 [CR-139]
  pKi: 8.2
